{"source": "paper PMC6505227", "about": "“Exploration of carbohydrate binding behavior and anti-proliferative activities of Arisaema tortuosum lectin” (BMC Molecular Biology, 2019)", "data": [{"molecular_target": "T1, Arisaema tortuosum lectin (ATL) (Arisaema tortuosum, UniProt A0A1L6CAS7)", "T1 construct": "257-residue precursor, predicted signal peptide 1-23, two domains (DOM1 N26-P132, DOM2 N146-A254) separated by processing; 52 kDa heterotetramer 2 x (A + B)", "T1 sequence (A0A1L6CAS7 24-257)": "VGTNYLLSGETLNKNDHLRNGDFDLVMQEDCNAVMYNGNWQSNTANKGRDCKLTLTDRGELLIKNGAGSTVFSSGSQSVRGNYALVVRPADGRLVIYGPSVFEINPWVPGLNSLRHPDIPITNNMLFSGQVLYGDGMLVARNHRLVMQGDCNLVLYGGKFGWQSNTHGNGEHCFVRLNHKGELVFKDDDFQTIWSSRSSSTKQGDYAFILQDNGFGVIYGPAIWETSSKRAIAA", "assay": "CFG glycan microarray v5.[…], biotinylated lectin, fluorescence", "type": "binding", "settings": "glycan immobilised via spacer; mean over 10, 1.0 and 0.1 µg/ml lectin", "values": [{"molecule": "Fuca1-2Galb1-4 GlcNAcb1-2Mana1-6(Fuca1-2Galb1-4GlcNAcb1-2(Fuca1-2Galb1-4GlcNAcb1-4)Mana1-3)Manb1-4GlcNAcb1-4GlcNAcb-Sp12 [compound 446]", "Avg. rank^a": "25.9 average rank (from RFU)"}, {"molecule": "Fuca1-2Galb1-4(Fuca1-3)GlcNAcb1-2Mana1-6(Fuca1-2Galb1-4(Fuca1-3)GlcNAcb1-2Mana1-3)Manb1-4GlcNAcb1-4(Fuca1-6)GlcNAcb-Sp24 [compound 473]", "Avg. rank^a": "20.0 average rank (from RFU)"}, {"molecule": "Gala1-4Galb1-3GlcNAcb1-2Mana1-6(Gala1-4Galb1-3GlcNAcb1-2Mana1-3)Manb1-4GlcNAcb1-4GlcNAcb-Sp19 [compound 404]", "Avg. rank^a": "70.8 average rank (from RFU)"}, {"molecule": "Galb1-3GlcNAcb1-2Mana1-6(Galb1-3GlcNAcb1-2Mana1-3)Manb1-4GlcNAcb1-4(Fuca1-6)GlcNAcb-Sp22 [compound 355]", "Avg. rank^a": "24.1 average rank (from RFU)"}, {"molecule": "Galb1-3GlcNAcb1-2Mana1-6(Galb1-3GlcNAcb1-2Mana1-3)Manb1-4GlcNAcb1-4GlcNAcb-Sp19 [compound 325]", "Avg. rank^a": "57.7 average rank (from RFU)"}, {"molecule": "Galb1-4GlcNAcb1-2Mana1-6(Galb1-4GlcNAcb1-4(Galb1-4GlcNAcb1-2)Mana1-3)Manb1-4GlcNAcb1-4GlcNAc-Sp21 [compound 370]", "Avg. rank^a": "24.5 average rank (from RFU)"}, {"molecule": "Galb1-4GlcNAcb1-2Mana1-6(GlcNAcb1-2Mana1-3)Manb1-4GlcNAcb1-4GlcNAc-Sp12 [compound 399]", "Avg. rank^a": "13.8 average rank (from RFU)"}, {"molecule": "Galb1-4GlcNAcb1-2Mana1-6(Mana1-3)Manb1-4GlcNAcb1-4GlcNAcb-Sp12 [compound 365]", "Avg. rank^a": "59.9 average rank (from RFU)"}, {"molecule": "Galb1-4GlcNAcb1-3Galb1-4GlcNAcb1-2Mana1-6(Galb1-4GlcNAcb1-3Galb1-4GlcNAcb1-2Mana1-3)Manb1-4GlcNAcb1-4(Fuca1-6)GlcNAcb-Sp24 [compound 576]", "Avg. rank^a": "20.9 average rank (from RFU)"}, {"molecule": "Galb1-4GlcNAcb1-6(Galb1-4GlcNAcb1-2)Mana1-6(Galb1-4GlcNAcb1-4(Galb1-4GlcNAcb1-2)Mana1-3)Manb1-4GlcNAcb1-4GlcNAcb-Sp21 [compound 388]", "Avg. rank^a": "51.9 average rank (from RFU)"}, {"molecule": "GlcNAcb1-2Mana1-6(GlcNAcb1-2Mana1-3)Manb1-4GlcNAcb1-4GlcNAcb-Sp13 [compound 53]", "Avg. rank^a": "48.0 average rank (from RFU)"}, {"molecule": "GlcNAcb1-2Mana1-6(GlcNAcb1-4(GlcNAcb1-2)Mana1-3)Manb1-4GlcNAcb1-4GlcNAc-Sp21 [compound 389]", "Avg. rank^a": "85.5 average rank (from RFU)"}, {"molecule": "GlcNAcb1-3Galb1-4GlcNAcb1-2Mana1-6(GlcNAcb1-3Galb1-4GlcNAcb1-2Mana1-3)Manb1-4GlcNAcb1-4(Fuca1-6)GlcNAcb-Sp24 [compound 575]", "Avg. rank^a": "20.6 average rank (from RFU)"}, {"molecule": "Mana1-2Mana1-6(Mana1-3)Mana1-6(Mana1-2Mana1-2Mana1-3)Manb1-4GlcNAcb1-4GlcNAcb-Sp12 [compound 212]", "Avg. rank^a": "35.7 average rank (from RFU)"}, {"molecule": "Mana1-6(Galb1-4GlcNAcb1-2Mana1-3)Manb1-4GlcNAcb1-4GlcNAcb-Sp12 [compound 352]", "Avg. rank^a": "15.5 average rank (from RFU)"}, {"molecule": "Mana1-6(Mana1-2Mana1-3)Mana1-6(Mana1-2Mana1-3)Manb1-4GlcNAcb1-4GlcNAcb-Sp12 [compound 211]", "Avg. rank^a": "30.4 average rank (from RFU)"}, {"molecule": "Mana1-6(Mana1-3)Mana1-6(Mana1-2Mana1-3)Manb1-4GlcNAcb1-4GlcNAcb-Sp12 [compound 216]", "Avg. rank^a": "37.3 average rank (from RFU)"}, {"molecule": "Mana1-6(Mana1-3)Mana1-6(Mana1-3)Manb1-4GlcNAcb1-4GlcNAcb-Sp12 [compound 217]", "Avg. rank^a": "67.9 average rank (from RFU)"}, {"molecule": "Mana1-6(Mana1-3)Manb1-4GlcNAcb1-4(Fuca1-6)GlcNAcb-Sp19 [compound 485]", "Avg. rank^a": "62.5 average rank (from RFU)"}, {"molecule": "Mana1-6(Mana1-3)Manb1-4GlcNAcb1-4GlcNAcb-Sp13 [compound 51]", "Avg. rank^a": "87.6 average rank (from RFU)"}]}, {"molecular_target": "Arisaema tortuosum lectin (Arisaema tortuosum)", "assay": "ITC; MicroCal iTC200, 18 injections, data fitted to a one site model; ATL dialysed in PBS; which partner was in the syringe is not stated", "settings": "not given", "values": [{"molecule": "asialofetuin (natural protein, glycoprotein (complex glycoprotein, asialo form as named)) IPLDPVAGYKEPACDDPDTEQAALAAVDYINKHLPRGYKHTLNQIDSVKVWPRRPTGEVYDIEIDTLETTCHVLDPTPLANCSVRQQTQHAVEGDCDIHVLKQDGQFSVLFTKCDSSPDSAEDVRKLCPDCPLLAPLNDSRVVHAVEVALATFNAESNGSYLQLVEISRAQFVPLPVSVSVEFAVAATDCIAKEVVDPTKCNLLAEKQYGFCKGSVIQKALGGEDVRVTCTLFQTQPVIPQPQPDGAEAEAPSAVPDAAGPTPSAAGPPVASVVVGPSVVAVPLPLHRAHYDLRHTFSGVASVESSSGEAFHVGKTPIVGQPSIPGGPVRLCPGRIRYFKI", "stoichiometry N": 0.32}]}, {"molecular_target": "Arisaema tortuosum lectin (Arisaema tortuosum)", "assay": "ITC; MicroCal iTC200, 18 injections, fitted with a one site model; ATL dialysed against PBS; set-up as described in ref. 21; temperature not stated", "settings": "not given", "units": {"Ka": "M⁻¹"}, "values": [{"molecule": "asialofetuin (natural protein, glycoprotein (complex glycoprotein, asialo form as named)) IPLDPVAGYKEPACDDPDTEQAALAAVDYINKHLPRGYKHTLNQIDSVKVWPRRPTGEVYDIEIDTLETTCHVLDPTPLANCSVRQQTQHAVEGDCDIHVLKQDGQFSVLFTKCDSSPDSAEDVRKLCPDCPLLAPLNDSRVVHAVEVALATFNAESNGSYLQLVEISRAQFVPLPVSVSVEFAVAATDCIAKEVVDPTKCNLLAEKQYGFCKGSVIQKALGGEDVRVTCTLFQTQPVIPQPQPDGAEAEAPSAVPDAAGPTPSAAGPPVASVVVGPSVVAVPLPLHRAHYDLRHTFSGVASVESSSGEAFHVGKTPIVGQPSIPGGPVRLCPGRIRYFKI", "Ka": 116000}]}]}
